Test results from ChEMBL document CHEMBL1124715 (J Med Chem, 1990).

Target: Serotonin 2 (5-HT2) receptor (Rattus norvegicus, UniProt P30994+P08909+P14842)
Assay: Binding affinity against 5-hydroxytryptamine 2 receptor of rat frontal cortex using [3H]ketanserin radioligand
Format: tissue-based

Row | Compound | Ki [nM]
1 | CCCCc1cc(OC)c(CC(C)N)cc1OC (centres undefined) | 58
2 | CCC(=O)c1cc(OC)c(CC(C)N)cc1OC.Cl (centres undefined) | 735
3 | COc1cc(CC(C)N)c(OC)cc1N (centres undefined) | 26000
4 | CCCNC(=O)c1cc(OC)c(CC(C)N)cc1OC (centres undefined) | 7550
5 | COc1cc(CC(C)N)c(OC)cc1O (centres undefined) | > 50000
6 | COc1cc(CC(C)N)c(OC)cc1C#N.Cl (centres undefined) | 2400
7 | COc1cc(CC(C)N)c(OC)cc1Cl (centres undefined) | 218
8 | CCCCCCc1cc(OC)c(CC(C)N)cc1OC.Cl (centres undefined) | 2.5
9 | COc1cc(CC(C)N)c(OC)cc1Cc1ccccc1.Cl (centres undefined) | 7
10 | CCOc1cc(OC)c(CC(C)N)cc1OC (centres undefined) | 2200
11 | COc1cc(CC(C)N)c(OC)cc1I (centres undefined) | 19
12 | COc1cc(C(C)C)c(OC)cc1CC(C)N (centres undefined) | 76
13 | COc1cc(C(C)(C)C)c(OC)cc1CC(C)N (centres undefined) | 19
14 | COc1cc(C(=O)O)c(OC)cc1CC(C)N.Cl (centres undefined) | > 50000
15 | CCCOC(=O)c1cc(OC)c(CC(C)N)cc1OC (centres undefined) | 2460
16 | COc1cc(C(=N)N)c(OC)cc1CC(C)N (centres undefined) | 7
17 | COc1cc(CC(C)N)c(OC)cc1CCCc1ccccc1.Cl (centres undefined) | 10
18 | CCCCOC(=O)c1cc(OC)c(CC(C)N)cc1OC (centres undefined) | 1530
19 | CCCCCCCCc1cc(OC)c(CC(C)N)cc1OC.Cl (centres undefined) | 3
